Measurements as given in patent US10266489B2, “Pyrrolic amide compound and preparation method and application thereof” (HitGen LTD, priority 2014, dated 2019).

Experiments:
Huh7 cells = assay: Determination of cell growth inhibition, CCK-8, Huh-7; assay type: cell-based; conditions: Homo sapiens, Huh-7 hepatoma cells, 72 hours, highest measured IC50 of single or multiple operations
Text: (§1) Test example 2 Cell determination-determination of cell growth inhibition Materials and reagents HepG2 cell strains, Hep3B cell strains, Huh7 cell strains and Li7 cell strains are purchased from Shanghai Institutes for Biological Sciences of Chinese Academy of Sciences; DMEM high glucose media and MEM media are purchased from Hyclone; fetal calf serum is purchased from Gibco Company; trypsin is purchased from Invitrogen Shanghai; CCK-8 kits are purchased from Beyotime Institute of Biotechnology; and other consumables such as cell-culture dishes and the like are purchased from Corning China. […]
(§2) comprising the steps: digesting HepG2 cells, Hep3B Huh7 cells and Li7 cells in logarithmic phases by using the trypsin; after counting the cells by taking uniform cell suspension, adjusting cell density to 1500 cells/pore by using a culture medium containing 10% of serum, and re-inoculating into a 96-pore cell culture plate, wherein the culture volume is 200 μL; incubating in a 5% CO2 incubator at a temperature of 37° C.; and culturing for 24 hours for experiments. […]
(§3) comprising the steps: taking the cells cultured for 24 hours from the incubator, sucking culture solution in the pore plate, adding 200 μL of compound solution prepared by using a culture medium containing 10% of the fetal calf serum into each pore, enabling five pores of each concentration to be parallel, setting DMSO at negative control, and incubating in the 5% CO2 incubator at a temperature of 37° C. for 72 hours for performing CCK-8 detection. […]
(§4) comprising the steps: taking a serum-free medium and a CCK-8 solution, and preparing a CCK-8 working solution according to a ratio of 10:1 (the process needs to be protected from light); taking the cells cultured for 72 hours from the incubator, sucking culture solution in the pore plate, adding 120 μL of the CCK-8 working solution into each pore, adding 120 μL of the CCK-8 working solution into a cell-free pore plate to serve as blank control, and incubating in the 5% CO2 incubator at a temperature of 37° C. for one hour (the process needs to be protected from light ); and […]
(§5) taking the pore plate from the incubator, sucking 100 μL of solution from each pore into a new 96-pore plate, and reading absorbancy at 450 nm (the process needs to he protected from light).
(§6) Tx: absorbancy measured in CCK-8 within 72 hours after compound effect
(§7) C: absorbancy measured m CCK-8 within 72 hours after culturing in negative control pores B: absorbancy measured CCK-8 in blank control pores
(§8) The compounds 1-19 prepared in the embodiments are operated in the above determination, and test results are shown in Table 3, wherein the highest measured IC50 values of the various compounds during single or multiple operations are classified as specified, as shown in Table 3: […]

HepG2 cells = assay: Determination of cell growth inhibition, CCK-8, HepG2; assay type: cell-based; conditions: Homo sapiens, HepG2 hepatoma cells, 72 hours, highest measured IC50 of single or multiple operations
Text: as §1, §2, §3, §4, §5, §6, §7, §8

Hep3B cells = assay: Determination of cell growth inhibition, CCK-8, Hep3B; assay type: cell-based; conditions: Homo sapiens, Hep3B hepatoma cells, 72 hours, highest measured IC50 of single or multiple operations
Text: as §1, §2, §3, §4, §5, §6, §7, §8

[1] = target: T1, histone deacetylase 6 (HDAC6) (Homo sapiens, UniProt Q9UBN7); assay: Detection of enzyme viability of histone deacetylase 6 (fluorogenic substrate deacetylation); assay type: biochemical; conditions: 0.35 ng/μL HDAC 6, 20 μM substrate, 37° C.
T1 construct: purchased BPS Bioscience 50076
T1 sequence (Q9UBN7 1-1215): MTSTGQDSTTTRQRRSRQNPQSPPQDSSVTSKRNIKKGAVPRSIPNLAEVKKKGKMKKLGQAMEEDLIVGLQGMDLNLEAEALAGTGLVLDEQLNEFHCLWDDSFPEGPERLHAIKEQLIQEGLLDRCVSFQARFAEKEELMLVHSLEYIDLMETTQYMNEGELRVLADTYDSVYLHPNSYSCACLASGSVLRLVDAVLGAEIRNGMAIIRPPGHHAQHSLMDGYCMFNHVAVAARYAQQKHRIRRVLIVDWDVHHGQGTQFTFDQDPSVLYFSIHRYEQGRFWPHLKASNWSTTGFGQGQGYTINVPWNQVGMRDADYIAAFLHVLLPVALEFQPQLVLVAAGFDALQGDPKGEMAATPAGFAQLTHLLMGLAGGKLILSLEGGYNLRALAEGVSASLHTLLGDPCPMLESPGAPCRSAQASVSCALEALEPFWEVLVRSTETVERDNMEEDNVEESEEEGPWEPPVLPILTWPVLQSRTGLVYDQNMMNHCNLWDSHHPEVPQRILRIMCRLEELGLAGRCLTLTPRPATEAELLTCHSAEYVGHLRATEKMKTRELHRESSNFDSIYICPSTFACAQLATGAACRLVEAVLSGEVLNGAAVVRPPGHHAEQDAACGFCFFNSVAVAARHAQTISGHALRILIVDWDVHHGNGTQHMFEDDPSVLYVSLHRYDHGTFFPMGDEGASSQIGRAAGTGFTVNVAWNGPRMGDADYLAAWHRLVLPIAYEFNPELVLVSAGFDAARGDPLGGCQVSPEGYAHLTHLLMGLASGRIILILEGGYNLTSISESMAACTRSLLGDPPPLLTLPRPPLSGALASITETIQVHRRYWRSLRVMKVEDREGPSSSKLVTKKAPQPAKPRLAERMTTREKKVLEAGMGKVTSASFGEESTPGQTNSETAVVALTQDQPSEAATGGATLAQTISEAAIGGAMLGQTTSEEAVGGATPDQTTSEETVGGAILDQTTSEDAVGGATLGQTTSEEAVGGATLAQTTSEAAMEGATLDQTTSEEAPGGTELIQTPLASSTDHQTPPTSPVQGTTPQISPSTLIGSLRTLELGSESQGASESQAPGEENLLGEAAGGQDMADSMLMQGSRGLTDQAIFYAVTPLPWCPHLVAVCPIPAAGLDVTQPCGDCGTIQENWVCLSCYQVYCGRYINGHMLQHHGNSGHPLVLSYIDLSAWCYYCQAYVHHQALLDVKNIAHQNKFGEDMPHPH
Text: HDAC inhibitory viabilities of the compounds in the present invention are detected in detection of substrate deacetylation.
A: Detection of enzyme viability of histone deacetylase 6 (#50076, BPS Bioscience):
Acetyl of HDAC 6 on a substrate is removed, so that the substrate is activated and can be affected by a subsequently added developing solution, and fluorophore is released. The size of a fluorescence signal reflects the viability of the HDAC 6. An IC50 detection method of the enzyme is disclosed in Chuping Xu, Elisabetta Soragni improved Histone Deacetylase Inhibitors as Therapeutics for the Neurdegenerative DiseaseEriedreich's Ataxia: A New Synthetic Route. A total reaction system (100 μL/well) contains 0.35 ng/μL of HDAC 6, 20 μM of substrate and compounds of different concentrations. The fluorescence signal is measured within 30 minutes after incubation at a temperature of 37° C., inhibitory effects of the compounds are determined from the obtained data and mapped with the compound concentrations to obtain a concentration response curve, and the IC50 value is fitted according to a four-parameter model.
The compounds 1-19 prepared in the embodiments are subjected to detection of enzyme viability of histone deacetylase 6 (i.e., HDAC6) according to the method above. Test results are shown in Table 2, wherein the measured IC50 values of the compounds are classified as specified, as shown in Table 2: […]

Li7 cells = assay: Determination of cell growth inhibition, CCK-8, Li-7; assay type: cell-based; conditions: Li-7 hepatoma cells, 72 hours, highest measured IC50 of single or multiple operations
Text: as §1, §2, §3, §4, §5, §6, §7, §8

Cc1cccc(S(=O)(=O)N2CC=C(C(=O)NO)C2)c1 [Compound 16, N-hydroxy-1-((3-methylphenyl)sulfonyl)2,5-dihydro-1H-pyrrole-3-formamide]
IC50 (Huh7 cells): > 10 µM | IC50 (HepG2 cells): < 10 µM | IC50 (Hep3B cells): > 10 µM | IC50 [1]: < 0.1 µM | IC50 (Li7 cells): > 10 µM

N#Cc1ccc(S(=O)(=O)N2CC=C(C(=O)NO)C2)cc1 [Compound 1, N-hydroxy-1-((4-benzene-cyano)sulfonyl) 2,5-dihydro-1H-pyrrole-3-formamide]
IC50 (Huh7 cells): > 10 µM | IC50 (HepG2 cells): > 10 µM | IC50 (Hep3B cells): > 10 µM | IC50 [1]: 0.1 to 0.3 µM | IC50 (Li7 cells): > 10 µM

O=C(NO)C1=CCN(S(=O)(=O)c2ccc(F)cc2)C1 [Compound 11, N-hydroxy-1-((4-fluoro-phenyl)sulfonyl) 2,5-dihydro-1H-pyrrole-3-formamide]
IC50 (Huh7 cells): > 10 µM | IC50 (HepG2 cells): > 10 µM | IC50 (Hep3B cells): > 10 µM | IC50 [1]: < 0.1 µM | IC50 (Li7 cells): > 10 µM

CNC(=O)c1ccc(S(=O)(=O)N2CC=C(C(=O)NO)C2)cc1 [Compound 9, N-hydroxy-1-((4-(methylaminecarbonyl)phenyl)sulfonyl) 2,5-dihydro-1H-pyrrole-3-formamide]
IC50 (Huh7 cells): > 10 µM | IC50 (HepG2 cells): > 10 µM | IC50 (Hep3B cells): > 10 µM | IC50 [1]: < 0.1 µM | IC50 (Li7 cells): > 10 µM

O=C(NO)C1=CCN(S(=O)(=O)c2cccc(F)c2)C1 [Compound 12, N-hydroxy-1-((3-fluoro-phenyl)sulfonyl) 2,5-dihydro-1H-pyrrole-3-formamide]
IC50 (Huh7 cells): > 10 µM | IC50 (HepG2 cells): < 10 µM | IC50 (Hep3B cells): > 10 µM | IC50 [1]: < 0.1 µM | IC50 (Li7 cells): > 10 µM

Cc1ccc(S(=O)(=O)N2CC=C(C(=O)NO)C2)cc1 [Compound 15, N-hydroxy-1-((4-methylphenyl)sulfonyl)2,5-dihydro-1H-pyrrole-3-formamide]
IC50 (Huh7 cells): > 10 µM | IC50 (HepG2 cells): < 10 µM | IC50 (Hep3B cells): < 10 µM | IC50 [1]: < 0.1 µM | IC50 (Li7 cells): < 10 µM

COc1ccc(S(=O)(=O)N2CC=C(C(=O)NO)C2)cc1 [Compound 13, N-hydroxy-1-((4-methoxy-phenyl)sulfonyl) 2,5-dihydro-1H-pyrrole-3-formamide]
IC50 (Huh7 cells): > 10 µM | IC50 (HepG2 cells): < 10 µM | IC50 (Hep3B cells): < 10 µM | IC50 [1]: < 0.1 µM | IC50 (Li7 cells): < 10 µM

Nc1ccccc1NC(=O)C1=CCN(S(=O)(=O)c2ccccc2)C1 [Compound 19, N-(2-aminophenyl)-1-(benzenesulfonyl)-2,5-dihydro-1H-pyrrole-3-formamide]
IC50 (Huh7 cells): > 10 µM | IC50 (HepG2 cells): > 10 µM | IC50 (Hep3B cells): > 10 µM | IC50 [1]: > 0.5 µM | IC50 (Li7 cells): > 10 µM

O=C(NO)C1=CCN(S(=O)(=O)c2ccc(C3=CCNCC3)cc2)C1 [Compound 18, N-hydroxy-1-((4-(1,2,3,6-tetrahydro-pyridine-4-yl)phenyl)sulfonyl) 2,5-dihydro-1H-pyrrole-3-formamide]
IC50 (Huh7 cells): > 10 µM | IC50 (HepG2 cells): > 10 µM | IC50 (Hep3B cells): > 10 µM | IC50 [1]: 0.1 to 0.3 µM | IC50 (Li7 cells): > 10 µM

COc1cccc(S(=O)(=O)N2CC=C(C(=O)NO)C2)c1 [Compound 14, N-hydroxy-1-((3-methoxy-phenyl)sulfonyl) 2,5-dihydro-1H-pyrrole-3-formamide]
IC50 (Huh7 cells): > 10 µM | IC50 (HepG2 cells): < 10 µM | IC50 (Hep3B cells): < 10 µM | IC50 [1]: < 0.1 µM | IC50 (Li7 cells): < 10 µM

COc1ccc(S(=O)(=O)N2CC=C(C(=O)NO)C2)cc1OC [Compound 17, N-hydroxy-1-((3,4-dimethoxyphenyl)sulfonyl) 2,5-dihydro-1H-pyrrole-3-formamide]
IC50 (Huh7 cells): > 10 µM | IC50 (HepG2 cells): > 10 µM | IC50 (Hep3B cells): > 10 µM | IC50 [1]: 0.1 to 0.3 µM | IC50 (Li7 cells): > 10 µM

O=C(NO)C1=CCN(S(=O)(=O)c2ccc(C(=O)O)cc2)C1 [Compound 7]
IC50 (Huh7 cells): > 10 µM | IC50 (HepG2 cells): > 10 µM | IC50 (Hep3B cells): > 10 µM | IC50 [1]: < 0.1 µM | IC50 (Li7 cells): > 10 µM

CC(=O)Nc1ccc(S(=O)(=O)N2CC=C(C(=O)NO)C2)cc1 [Compound 10, N-hydroxy-1-((4-acetamido-phenyl)sulfonyl) 2,5-dihydro-1H-pyrrole-3-formamide]
IC50 (Huh7 cells): > 10 µM | IC50 (HepG2 cells): > 10 µM | IC50 (Hep3B cells): > 10 µM | IC50 [1]: < 0.1 µM | IC50 (Li7 cells): > 10 µM
